Test results published in ChEMBL document CHEMBL2429832, “N-substituted 8-aminopentacyclo[5.4.0.0(2,6).0(3,10).0(5,9)]undecanes as σ receptor ligands with potential neuroprotective effects” (Bioorg Med Chem, 2013).

Columns and labels:
[1] = target: 5-hydroxytryptamine receptor 1D (Homo sapiens) (UniProt P28221); test: Inhibition of 5-HT1D receptor (unknown origin) at 10 uM by PDSP assay relative to control
Histamine H3 receptor = Histamine H3 receptor (Homo sapiens, UniProt Q9Y5N1); test: Inhibition of histamine H3 receptor (unknown origin) at 10 uM by PDSP assay relative to control
Histamine H4 receptor = Histamine H4 receptor (Homo sapiens, UniProt Q9H3N8); test: Inhibition of histamine H4 receptor (unknown origin) at 10 uM by PDSP assay relative to control
Histamine H1 receptor = Histamine H1 receptor (Homo sapiens, UniProt P35367); test: Inhibition of histamine H1 receptor (unknown origin) at 10 uM by PDSP assay relative to control
[2] = target: Beta-1 adrenergic receptor (Homo sapiens) (UniProt P08588); test: Inhibition of adrenergic beta1 receptor (unknown origin) at 10 uM by PDSP assay relative to control
[3] = target: Sodium-dependent serotonin transporter (Homo sapiens, UniProt P31645); test: Displacement of [3H]-citalopram from human SERT expressed in HEK cell membranes at 10 uM relative to control; details: HEK293
[4] = target: Sodium-dependent noradrenaline transporter (Homo sapiens, UniProt P23975); test: Displacement of [3H]-nisoxetine from human NET expressed in HEK cell membranes at 10 uM relative to control; details: HEK293
PC-12 = test: Selectivity ratio of Ki for sigma-1 receptor in rat brain homogenates to Ki for sigma-2 receptor in rat PC12 cells; assay type: cell-based
[5] = target: Sigma non-opioid intracellular receptor 1 (Rattus norvegicus, UniProt Q9R0C9); test: Displacement of [3H](+)-pentazocine from sigma-1 receptor in rat brain homogenates; assay type: tissue-based
Mu-type opioid receptor = Mu-type opioid receptor (Homo sapiens, UniProt P35372); test: Inhibition of mu opioid receptor (unknown origin) at 10 uM by PDSP assay relative to control
[6] = target: Delta-type opioid receptor (Homo sapiens, UniProt P41143); test: Inhibition of delta opioid receptor (unknown origin) at 10 uM by PDSP assay relative to control
[7] = target: Kappa-type opioid receptor (Homo sapiens, UniProt P41145); test: Inhibition of kappa opioid receptor (unknown origin) at 10 uM by PDSP assay relative to control
[8] = target: T1, Muscarinic acetylcholine receptor M1 (Homo sapiens) (UniProt P11229); test: Inhibition of muscarinic M1 receptor (unknown origin) at 10 uM by PDSP assay relative to control
T1 sequence (whole entry): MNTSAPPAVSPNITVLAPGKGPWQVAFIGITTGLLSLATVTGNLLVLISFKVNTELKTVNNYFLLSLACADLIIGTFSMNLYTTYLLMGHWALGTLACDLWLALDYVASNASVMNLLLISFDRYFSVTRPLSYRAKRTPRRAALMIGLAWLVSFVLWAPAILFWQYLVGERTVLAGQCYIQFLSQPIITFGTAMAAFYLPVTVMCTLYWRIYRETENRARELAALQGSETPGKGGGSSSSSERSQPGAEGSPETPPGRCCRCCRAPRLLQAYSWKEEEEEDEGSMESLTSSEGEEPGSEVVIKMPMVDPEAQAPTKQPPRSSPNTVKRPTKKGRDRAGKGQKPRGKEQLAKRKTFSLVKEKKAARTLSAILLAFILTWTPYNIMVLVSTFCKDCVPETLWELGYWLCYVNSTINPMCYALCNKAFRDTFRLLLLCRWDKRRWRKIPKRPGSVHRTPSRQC

[9] = target: 5-hydroxytryptamine receptor 7 (Homo sapiens, UniProt P34969); test: Inhibition of 5-HT7 receptor (unknown origin) at 10 uM by PDSP assay relative to control
[10] = target: 5-hydroxytryptamine receptor 5A (Homo sapiens, UniProt P47898); test: Inhibition of 5-HT5A receptor (unknown origin) at 10 uM by PDSP assay relative to control
[11] = target: 5-hydroxytryptamine receptor 6 (Homo sapiens, UniProt P50406); test: Inhibition of 5-HT6 receptor (unknown origin) at 10 uM by PDSP assay relative to control
[12] = target: 5-hydroxytryptamine receptor 2B (Homo sapiens, UniProt P41595); test: Inhibition of 5-HT2B receptor (unknown origin) at 10 uM by PDSP assay relative to control
[13] = target: T2, Alpha-2A adrenergic receptor (Homo sapiens) (UniProt P08913); test: Inhibition of adrenergic alpha2A receptor (unknown origin) at 10 uM by PDSP assay relative to control
T2 sequence (whole entry): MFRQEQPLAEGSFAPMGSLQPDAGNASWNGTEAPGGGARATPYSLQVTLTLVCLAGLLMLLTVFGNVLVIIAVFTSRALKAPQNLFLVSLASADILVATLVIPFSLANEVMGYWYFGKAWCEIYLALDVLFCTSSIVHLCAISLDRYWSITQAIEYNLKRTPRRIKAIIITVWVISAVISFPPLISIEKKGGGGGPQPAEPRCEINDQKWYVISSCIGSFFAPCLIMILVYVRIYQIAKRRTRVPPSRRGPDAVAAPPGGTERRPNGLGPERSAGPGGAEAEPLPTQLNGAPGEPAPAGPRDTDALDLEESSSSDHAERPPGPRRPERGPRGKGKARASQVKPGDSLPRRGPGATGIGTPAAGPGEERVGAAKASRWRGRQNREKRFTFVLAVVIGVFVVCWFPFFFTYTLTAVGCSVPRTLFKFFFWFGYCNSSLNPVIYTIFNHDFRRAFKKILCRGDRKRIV

Histamine H2 receptor = Histamine H2 receptor (Homo sapiens, UniProt P25021); test: Inhibition of histamine H2 receptor (unknown origin) at 10 uM by PDSP assay relative to control
Rattus norvegicus = species: Rattus norvegicus; test: Inhibition of rat brain BZP receptor at 10 uM by PDSP assay relative to control

Chain of Beta-1 adrenergic receptor (Homo sapiens) (P08588 whole entry, looked up): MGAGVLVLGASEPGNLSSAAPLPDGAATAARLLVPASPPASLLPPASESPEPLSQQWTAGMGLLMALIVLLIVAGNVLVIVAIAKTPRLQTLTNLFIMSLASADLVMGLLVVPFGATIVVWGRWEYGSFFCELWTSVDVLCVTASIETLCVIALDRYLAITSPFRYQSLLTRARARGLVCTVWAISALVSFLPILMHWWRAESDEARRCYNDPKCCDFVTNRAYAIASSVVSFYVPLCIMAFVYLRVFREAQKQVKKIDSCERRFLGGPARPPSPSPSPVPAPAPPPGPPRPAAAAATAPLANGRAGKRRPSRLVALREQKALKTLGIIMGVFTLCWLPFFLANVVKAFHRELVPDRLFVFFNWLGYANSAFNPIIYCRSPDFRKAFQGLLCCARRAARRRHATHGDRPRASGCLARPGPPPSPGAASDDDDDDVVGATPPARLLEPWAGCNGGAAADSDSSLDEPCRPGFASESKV
Chain of Histamine H2 receptor (P25021 whole entry): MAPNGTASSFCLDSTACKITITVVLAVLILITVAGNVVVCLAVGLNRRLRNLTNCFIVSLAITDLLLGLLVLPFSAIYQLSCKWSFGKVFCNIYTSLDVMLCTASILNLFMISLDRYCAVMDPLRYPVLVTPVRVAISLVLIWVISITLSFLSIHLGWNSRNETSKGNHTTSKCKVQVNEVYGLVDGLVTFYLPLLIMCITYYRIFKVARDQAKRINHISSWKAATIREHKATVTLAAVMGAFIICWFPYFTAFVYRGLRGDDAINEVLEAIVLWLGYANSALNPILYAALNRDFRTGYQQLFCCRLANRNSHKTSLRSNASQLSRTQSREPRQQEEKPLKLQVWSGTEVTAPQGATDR
Chain of Mu-type opioid receptor (P35372 whole entry): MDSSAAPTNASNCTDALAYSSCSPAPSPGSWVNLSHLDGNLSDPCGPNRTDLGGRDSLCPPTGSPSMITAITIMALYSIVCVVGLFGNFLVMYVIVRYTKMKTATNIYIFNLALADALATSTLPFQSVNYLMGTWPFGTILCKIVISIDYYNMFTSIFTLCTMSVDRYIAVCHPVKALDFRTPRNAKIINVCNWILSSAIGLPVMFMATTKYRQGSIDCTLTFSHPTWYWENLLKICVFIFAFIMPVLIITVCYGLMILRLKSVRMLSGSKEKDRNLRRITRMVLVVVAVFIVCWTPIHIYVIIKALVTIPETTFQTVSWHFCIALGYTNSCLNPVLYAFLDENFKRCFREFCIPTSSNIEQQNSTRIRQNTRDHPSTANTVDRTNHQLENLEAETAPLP
Chain of 5-hydroxytryptamine receptor 5A (P47898 whole entry): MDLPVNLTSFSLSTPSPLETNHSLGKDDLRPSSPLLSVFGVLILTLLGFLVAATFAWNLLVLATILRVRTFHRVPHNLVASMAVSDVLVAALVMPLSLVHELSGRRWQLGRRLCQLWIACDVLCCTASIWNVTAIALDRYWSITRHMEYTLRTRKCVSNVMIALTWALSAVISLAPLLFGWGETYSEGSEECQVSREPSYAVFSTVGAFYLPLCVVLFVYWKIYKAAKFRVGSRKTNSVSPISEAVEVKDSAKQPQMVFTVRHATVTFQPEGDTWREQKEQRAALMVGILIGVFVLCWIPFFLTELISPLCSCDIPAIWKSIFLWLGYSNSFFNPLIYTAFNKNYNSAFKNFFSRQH
Chain of 5-hydroxytryptamine receptor 7 (P34969 whole entry): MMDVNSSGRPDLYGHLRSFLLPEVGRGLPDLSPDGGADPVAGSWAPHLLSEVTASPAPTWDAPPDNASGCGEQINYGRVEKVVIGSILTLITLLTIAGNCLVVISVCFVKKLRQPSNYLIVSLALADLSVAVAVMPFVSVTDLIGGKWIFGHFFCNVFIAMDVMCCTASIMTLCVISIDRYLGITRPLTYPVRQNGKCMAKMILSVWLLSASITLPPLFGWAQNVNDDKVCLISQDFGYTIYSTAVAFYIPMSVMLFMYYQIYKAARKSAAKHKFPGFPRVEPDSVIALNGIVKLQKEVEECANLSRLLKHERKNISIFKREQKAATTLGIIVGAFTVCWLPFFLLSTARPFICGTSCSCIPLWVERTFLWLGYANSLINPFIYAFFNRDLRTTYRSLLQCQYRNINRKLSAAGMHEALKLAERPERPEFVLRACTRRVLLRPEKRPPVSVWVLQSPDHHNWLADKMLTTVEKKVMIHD
Chain of 5-hydroxytryptamine receptor 6 (P50406 whole entry): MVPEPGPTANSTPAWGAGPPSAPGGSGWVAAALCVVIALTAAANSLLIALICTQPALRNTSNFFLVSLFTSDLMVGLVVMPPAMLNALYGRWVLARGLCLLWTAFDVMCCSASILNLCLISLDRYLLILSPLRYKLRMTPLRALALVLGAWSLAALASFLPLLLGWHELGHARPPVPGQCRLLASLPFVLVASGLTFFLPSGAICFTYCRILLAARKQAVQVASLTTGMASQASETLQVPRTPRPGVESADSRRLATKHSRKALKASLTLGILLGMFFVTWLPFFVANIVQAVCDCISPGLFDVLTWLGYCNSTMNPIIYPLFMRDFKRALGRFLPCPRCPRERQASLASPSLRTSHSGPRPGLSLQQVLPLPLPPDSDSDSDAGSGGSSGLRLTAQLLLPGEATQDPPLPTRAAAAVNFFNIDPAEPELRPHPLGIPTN
Chain of Histamine H1 receptor (P35367 whole entry): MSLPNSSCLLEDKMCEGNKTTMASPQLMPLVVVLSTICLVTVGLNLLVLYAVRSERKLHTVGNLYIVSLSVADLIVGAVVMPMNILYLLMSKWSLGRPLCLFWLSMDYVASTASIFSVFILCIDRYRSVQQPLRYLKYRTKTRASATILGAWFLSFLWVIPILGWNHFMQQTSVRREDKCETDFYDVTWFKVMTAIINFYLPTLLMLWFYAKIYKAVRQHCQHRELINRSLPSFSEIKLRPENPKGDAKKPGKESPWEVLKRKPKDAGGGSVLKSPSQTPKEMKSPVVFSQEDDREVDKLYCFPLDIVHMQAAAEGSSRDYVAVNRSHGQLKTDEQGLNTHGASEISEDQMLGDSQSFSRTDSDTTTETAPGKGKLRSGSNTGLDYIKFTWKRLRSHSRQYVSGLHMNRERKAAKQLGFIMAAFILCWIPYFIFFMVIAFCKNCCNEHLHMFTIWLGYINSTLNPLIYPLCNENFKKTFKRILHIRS
Chain of Sigma non-opioid intracellular receptor 1 (Q9R0C9 whole entry): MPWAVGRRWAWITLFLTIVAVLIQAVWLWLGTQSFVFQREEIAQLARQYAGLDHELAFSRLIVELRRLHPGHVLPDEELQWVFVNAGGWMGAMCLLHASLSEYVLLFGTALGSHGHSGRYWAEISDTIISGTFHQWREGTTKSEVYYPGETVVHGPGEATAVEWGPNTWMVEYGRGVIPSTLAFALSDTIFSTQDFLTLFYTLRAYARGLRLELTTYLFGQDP
Chain of Histamine H4 receptor (Q9H3N8 whole entry): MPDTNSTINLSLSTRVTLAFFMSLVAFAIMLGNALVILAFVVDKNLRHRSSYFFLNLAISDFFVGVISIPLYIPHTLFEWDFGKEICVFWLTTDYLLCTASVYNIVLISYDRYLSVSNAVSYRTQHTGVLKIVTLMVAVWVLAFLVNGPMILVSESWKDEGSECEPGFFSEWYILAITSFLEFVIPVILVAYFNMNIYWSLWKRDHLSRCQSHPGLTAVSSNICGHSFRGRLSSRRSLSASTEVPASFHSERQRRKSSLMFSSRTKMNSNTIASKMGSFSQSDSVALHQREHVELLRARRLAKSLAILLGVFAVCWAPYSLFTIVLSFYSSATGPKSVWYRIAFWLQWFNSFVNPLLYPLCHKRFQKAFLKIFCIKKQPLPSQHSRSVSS
Chain of Sodium-dependent noradrenaline transporter (P23975 whole entry): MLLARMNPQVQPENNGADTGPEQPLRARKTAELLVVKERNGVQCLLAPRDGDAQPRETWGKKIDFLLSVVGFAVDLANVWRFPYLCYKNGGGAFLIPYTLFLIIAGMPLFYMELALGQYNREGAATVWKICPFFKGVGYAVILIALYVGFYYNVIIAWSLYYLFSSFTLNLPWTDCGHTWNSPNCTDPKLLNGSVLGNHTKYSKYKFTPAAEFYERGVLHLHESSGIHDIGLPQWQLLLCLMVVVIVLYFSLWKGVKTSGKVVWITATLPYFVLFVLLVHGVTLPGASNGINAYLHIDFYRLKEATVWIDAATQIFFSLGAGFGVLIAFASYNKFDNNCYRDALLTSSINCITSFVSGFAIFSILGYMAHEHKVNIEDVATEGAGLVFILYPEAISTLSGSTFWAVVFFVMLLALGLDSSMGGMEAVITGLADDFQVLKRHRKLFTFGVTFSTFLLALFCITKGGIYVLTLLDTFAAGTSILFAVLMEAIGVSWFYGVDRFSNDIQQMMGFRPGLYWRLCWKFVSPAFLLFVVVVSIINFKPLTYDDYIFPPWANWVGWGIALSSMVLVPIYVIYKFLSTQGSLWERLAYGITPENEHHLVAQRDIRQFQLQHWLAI
Chain of Delta-type opioid receptor (P41143 whole entry): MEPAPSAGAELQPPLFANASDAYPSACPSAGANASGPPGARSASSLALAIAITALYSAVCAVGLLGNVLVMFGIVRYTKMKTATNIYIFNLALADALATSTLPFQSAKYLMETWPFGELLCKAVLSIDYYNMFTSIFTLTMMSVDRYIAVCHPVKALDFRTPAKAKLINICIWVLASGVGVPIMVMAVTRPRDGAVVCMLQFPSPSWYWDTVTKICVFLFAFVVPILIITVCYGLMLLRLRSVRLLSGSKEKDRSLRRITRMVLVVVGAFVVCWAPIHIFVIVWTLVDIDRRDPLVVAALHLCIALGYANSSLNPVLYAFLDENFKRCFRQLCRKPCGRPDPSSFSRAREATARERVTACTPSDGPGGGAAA

Row | Structure (SMILES) | inhibition [1] | inhibition (Histamine H3 receptor) | inhibition (Histamine H4 receptor) | inhibition (Histamine H1 receptor) | inhibition [2] | inhibition [3] | inhibition [4] | Ratio Ki (PC-12) | Ki [5] | inhibition (Mu-type opioid receptor) | inhibition [6] | inhibition [7] | inhibition [8] | inhibition [9] | inhibition [10] | inhibition [11] | inhibition [12] | inhibition [13] | inhibition (Histamine H2 receptor) | inhibition (Rattus norvegicus)
1 | c1ccc(CCN[C@H]2C3C4CC5C6C4CC3C6C52)cc1 (some centres undefined) | < 50% | < 50% | < 50% | < 50% | < 50% | < 50% | < 50% | 5.3 | 49 nM | < 50% | < 50% | < 50% | < 50% | < 50% | < 50% | < 50% | < 50% |  |  | 
2 | CN(Cc1ccc2c(c1)OCO2)[C@H]1C2C3CC4C5C3CC2C5C41 (some centres undefined) | < 50% | < 50% | < 50% | < 50% | < 50% |  | < 50% | 3.4 | 209 nM | < 50% | < 50% | < 50% | < 50% | < 50% | < 50% | < 50% | < 50% | < 50% |  | 
3 | CN(Cc1ccccc1)[C@H]1C2C3CC4C2C(=O)C2C4C3C21 (some centres undefined) | < 50% | < 50% | < 50% | < 50% | < 50% | < 50% | < 50% | 2.6 | 568 nM | < 50% | < 50% | < 50% |  | < 50% | < 50% | < 50% | < 50% | < 50% | < 50% | < 50%
4 | c1ccc(CCN[C@H]2C3C4CC5C6C4CC3C6C52)nc1 (some centres undefined) | < 50% | < 50% |  | < 50% | < 50% | < 50% | < 50% | 2.5 | 21.5 nM | < 50% | < 50% | < 50% | < 50% | < 50% | < 50% |  | < 50% | < 50% | < 50% | 
5 | CN(CCc1ccccn1)[C@H]1C2C3CC4C2C(=O)C2C4C3C21 (some centres undefined) | < 50% | < 50% | < 50% | < 50% | < 50% | < 50% | < 50% | > 15.8 | > 10000 nM | < 50% | < 50% | < 50% | < 50% | < 50% | < 50% | < 50% | < 50% | < 50% | < 50% | < 50%
6 | CN(Cc1cccnc1)[C@H]1C2C3CC4C5C3CC2C5C41 (some centres undefined) | < 50% | < 50% | < 50% | < 50% | < 50% | < 50% | < 50% | 1.1 | 970 nM | < 50% | < 50% |  | < 50% | < 50% | < 50% | < 50% | < 50% | < 50% | < 50% | < 50%
